“Also recorded” adds a separate entry of the source.
Tests used:
hNek2 kinase = target: T1, hNek2 kinase (Homo sapiens, UniProt P51955); experiment: ADP-Glo kinase assay, recombinant hNek2; assay type: biochemical
T1 sequence (P51955 1-445): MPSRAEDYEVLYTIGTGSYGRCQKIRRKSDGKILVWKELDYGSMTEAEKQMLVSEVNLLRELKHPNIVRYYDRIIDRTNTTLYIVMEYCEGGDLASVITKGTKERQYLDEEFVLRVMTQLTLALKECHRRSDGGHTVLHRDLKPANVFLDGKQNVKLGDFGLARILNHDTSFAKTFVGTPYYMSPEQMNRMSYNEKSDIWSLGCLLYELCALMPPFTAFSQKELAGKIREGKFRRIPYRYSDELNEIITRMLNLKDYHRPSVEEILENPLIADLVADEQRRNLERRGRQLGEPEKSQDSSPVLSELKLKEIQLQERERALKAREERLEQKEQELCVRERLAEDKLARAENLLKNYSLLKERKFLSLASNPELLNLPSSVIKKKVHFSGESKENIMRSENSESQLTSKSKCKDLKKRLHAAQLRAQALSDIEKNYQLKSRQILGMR

A549 lung cancer cells [1] = experiment: Wound-healing; settings: 24 hr post-treatment, versus vehicle control
[2] = tested on: pAkt (Ser-473) in A549 cells; experiment: Western-blot analysis of pAkt; settings: 24 h treatment, compared to DMSO
A549 lung cancer cells [3] = experiment: MTT cell viability assay, A549; settings: Homo sapiens, A549, read-out: Cell viability EC50, A549 (Figure 6A legend)

SMILES	Loss of Nek2 inhibitory activity / increase of IC50 compared to V8 (hNek2 kinase)	Cell migration in wound-healing assay (A549 lung cancer cells [1])	Cellular levels of pAkt (Ser-473) [2]	Mode of Nek2 inhibition (hNek2 kinase)	Selectivity towards Nek2 kinase over the other tested kinases (hNek2 kinase; versus other tested kinases (Table 1))	EC50 (A549 lung cancer cells [3]) [µM]
CS(=O)(=O)N1CCC2(CC1)NCC(=O)N2 [Compound V0-1]	> 13 fold					
CN1CCC2(CC1)NCC(=O)N2 [Compound V0-3]	significant loss of potency					
CS(=O)(=O)N1CCC2(CC1)N=C(c1ccc(Br)cc1)C(=O)N2 [Compound V8]		migrated slower than the vehicle control; also recorded: Dose-dependent inhibiton of cell migration	reduced levels of pAkt (Ser-473) in a dose-dependent manner	competitive with respect to ATP, reversible, and selective; also recorded: selective, reversible and is not time dependent; also recorded: competitive inhibitor for ATP binding	9- to 13 fold	22.7 ± 0.2

— paper PMC10246433 (Bioorganic & medicinal chemistry letters, 2023)
